According to patent US6337317B1, “Antimicrobial peptides and methods of use thereof” (priority 2000, dated 2002):
Where a SMILES comes first, the peptide text is derived from it.

What was measured:
Candida albicans = format: cell-based; conditions: Candida albicans clinical lab isolate
Description: (§1) The biological activity of the peptides can be determined by standard methods known to those of skill in the art, such as a “minimal inhibitory concentration” (MIC) assay (see Wu and Hancock (1999) J. Biol Chem. 274:29-35 and Examples section). A MIC assay allows the determination of the lowest concentration of peptide that inhibits the multiplication and growth of mircoorganisms. Changes in the microorganism population are assessed by measuring the optical density (OD) of the population in broth or medium. Peptide MIC's can be determined for a variety of micoorganisms under a variety of conditions. Another assay for the biological activity of the peptides is a “fractional inhibitory concentration” (FIC) assay. This assay is especially useful for determining synergistic effects between the peptides of the invention, and between invention peptides and other compounds such as known antibiotics. A FIC assay employs the strategy of a MIC assay with additional variable(s), e.g., known antibiotics. One type of FIC assay is performed in a microwell plate containing microorganisms in broth. Peptides, in a range of dilutions, is added to each well following a patter of one dimension of the microwell plate, and antibiotics, in the other dimension. The FIC is calculated by looking at the impact of an antibiotic on the MIC of the peptide and the reciprocal relationship. […] Preferably, an FIC of less than 0.5 is obtained for synergism. As used herein, FIC can be determined as follows:
(§2) The bacterial strains used for antimicrobial activity assays included E. coli UB1005 (F^−, nalA37, metB1) and its outer membrane deficient mutant DC2 (16), E. coli KF130 (gyrA) (Hooper et al. (1987) Am. J. Med. 82:(Suppl. 4A),12-20), wild tppe strains of S. typhimurium 14028s (Fields et al. (1989) Science 243:1059-1062), S. aureus ATCC25923, S. aureus SAP0017 and R147. Also included was a clinical isolate of S. epidermidis were obtained from Dr. D. Speert, Department of Medicine, University of British Columbia, and P. aeruginosa PAO1 (Hancock and Carey (1979) J. Bacteriol. 140:902-910), H374 and H744 (Poole et al. (1993) J. Bacterial.175:7363-7372.) and E. faecalis ATCC 29212. Antifungal activity was tested using a clinical lab isolate of Candida albicans. All the strains were grown in Mueller Hinton (MH) broth (Difco Laboratories, Detroit, Mich.) at 37° C. unless otherwise indicated. The lipopolysaccharides (LPS) of E. coli UB1005 and P. aeruginosa H103 used for the dansyl-polymyxin B replacement assay were isolated as described by Moore et al. ((1986) Antimicrobial. Agents Chemother. 29:496-500). Polymyxin B, 1-N-phenylnapthylamine (NPN), carbonyl cyanide-m-chlorophenyl hydrazone (CCCP), Re LPS from S. Minnesota R595 (Re mutant) and LPS from E. coli 0111 :B4 were purchased from Sigma Chemicals Co. (St. Louis, Mo.). Dansyl polymyxin B was synthesized as described previously (Moore et al. (1986) Antimicrobial. Agents Chemother. 29:496-500). The lipids 1-pamitoyl-2-oleoyl-sn-glycero-3-phosphocholine (POPC), 1-palmitoyl-2-oleoyl-sn-glycero-3-phosphoglycerol (POPG), 1-palmitoyl-2-oleoyl-sn-glycero-3-phosphoethanolamine (POPE) and phosphatidylglycerol from egg yolk (egg-PG) were purchased from Avanti Polar Lipids Inc. (Alabaster, Ala.). The fluorescent dye 3,3-dipropylthiacarbocyanine (diSC35) was purchased from Molecular Probes (Eugene, Oreg.).
(§3) MIC Assay p The minimum inhibitory concentrations of (MIC) of several invention peptides were determined using methods described elsewhere (Wu and Hancock, (1999) J. Biol Chem. 274:29-35). Cells were grown overnight at 37EC in LB-S (Luria broth without any salt supplement) and diluted one in 10,000 in the same medium to give concentrations of about 10^4 to 10^5 CFU/ml. The broth dilutions were set up in a 96-well microtiter plate by putting 200 μl of LB-S containing the initial concentration of antibiotic or compound in column 1 and 100 Φl of the same medium in columns 2-12. […]

Enterococcus facaelis = format: cell-based
Description: as §1, §2, §3

Escherichia coli UB1005 = format: cell-based
Description: as §1, §2, §3

[1] = test system: Pseudomonas aeruginosa PAO1; format: cell-based
Description: as §1, §2, §3

[2] = test system: Salmonella typhimurium 14028s; format: cell-based
Description: as §1, §2, §3

[3] = test system: Staphylococcus aureus ATCC 25923; format: cell-based
Description: as §1, §2, §3

[4] = test system: Staphylococcus epidermidis; format: cell-based; conditions: Staphylococcus epidermidis clinical isolate
Description: as §1, §2, §3

P. aeruginosa M2 = assay: P. aeruginosa infection in neutropenic mouse model; format: in vivo; conditions: neutropenic CD-1 mice
Description: Invention peptides were assayed for their ability to protect against P. aeruginosa infection in a neutropenic mouse mode. Female CD-1 mice, made neutropenic by three injections of cyclophosphamide (see Gough et al., (1996) Infect. Immun. 64:4922-4927) were injected intraperitoneally with a 100% lethal dose of P. aeruginosa M2 (approximately 200 organisms). Thirty minutes later, mice were injected intraperitoneally with invention peptides (200 μg/100 μl) Survival was assessed 24 to 72 hours later.

[5] = Dansyl polymyxin B displacement assay (binding affinity for LPS); design: species or system Escherichia coli
Description: To determine whether invention peptides are able to interact with the LPS of Gram-negative bacterial outer membrane, the binding affinity of peptide for LPS was determined using a dansyl polymyxin B displacement assay (Moore et al. (1986) Antimicrobial Agents Chemother. 29:496-500). The assay uses dansyl polymyxin, a cationic probe that is highly fluorescent only when bound and LPS isolated from E. coli. UB1005. […] Maximal displacement of LPS was expressed as a percentage where 100% displacement of dansyl polymyxin B was taken as that observed with polymyxin B.

Work on CC(C)[C@@H]1NC(=O)[C@H](CCCNC(=N)N)NC(=O)[C@H](Cc2ccccc2)NC(=O)[C@@H](NC(=O)[C@H](Cc2c[nH]c3ccccc23)NC(=O)[C@H](CCCNC(=N)N)NC(=O)[C@@H](N)CCCNC(=N)N)CSSC[C@@H](C(=O)N[C@@H](CCCNC(=N)N)C(N)=O)NC(=O)[C@H](CCCCN)NC(=O)[C@H](CCCNC(=N)N)NC(=O)[C@H](Cc2ccc(O)cc2)NC(=O)[C@@H]2CSSC[C@H](NC1=O)C(=O)N[C@@H](Cc1ccc(O)cc1)C(=O)N[C@@H](CCCNC(=N)N)C(=O)NCC(=O)N[C@@H](Cc1ccccc1)C(=O)N2 [Polyphemusin I] (HELM PEPTIDE1{R.R.W.C.F.R.V.C.Y.R.G.F.C.Y.R.K.C.R.[am]}$PEPTIDE1,PEPTIDE1,4:R3-17:R3|PEPTIDE1,PEPTIDE1,8:R3-13:R3$$$V2.0; N-terminus and C-terminus assumed) yielded an MIC (Candida albicans) of 1 µg/mL, an MIC (Enterococcus facaelis) of 0.25 µg/mL and an MIC (Escherichia coli UB1005) of 0.125 µg/mL. For the same molecule, the MIC [1] was 0.25 µg/mL, the MIC [2] was 0.25 µg/mL and the MIC [3] was 0.5 µg/mL. The MIC [4] was 0.25 µg/mL, the “Mean Time to Death” value (P. aeruginosa M2; 200 μg peptide intraperitoneally 30 min after infection) was 52 h and the “Survival (%), P. aeruginosa infection” value (P. aeruginosa M2; 200 μg peptide intraperitoneally, groups of 5 mice, assessed 24 to 72 hours) was 20%. The Imax ([5]; maximal displacement, 100% = that observed with polymyxin B) was 85% and the IC50 ([5]; peptide concentration reducing bound dansyl polymyxin B (10 μM) by 50% of maximal displacement, read-out: I50) was 4.8 µM.
